“And” between values parts separate entries of the source, which are not always exact repeats. Equal values may be shown once.
Experiments:
[1] = test system: dehydrogenase which catalyses chiroinositol (Bacillus sp. No. 3 origin); experiment: Substrate specificity (Table 1); type: biochemical; conditions: equal concentration of substrates; glycine-NaOH pH 9.8, thio-NAD/NADH cycling
Method: Substrate specificity is assayed by using following reaction solution at the equal concentration of substrates.
200 mM glycine-NaOH buffer (pH 9.8)
0.03 mM NADH (Oriental Yeast Corp., Japan)
100 U/ml dehydrogenase which catalyses chiroinosiol
2 Mm thio-NAD (Oriental Yeast Corp., Japan)
D-chiroinositol, galactose, fructose, mannitol, mannose; Japan, Wako Pure Chemicals Inc., myo-, epi-, scyllo-inositol U.S.A. SIGMA Corp.

[2] = test system: crude enzyme which catalyses chiroinositol, S. r. 301 origin; experiment: Substrate specificity (Table 3); type: biochemical, Streptomyces roseogriseus 301; set-up: concentration or dose not given beside the values; conditions: enzyme assay reaction solution, D-chiroinositol replaced by substrates
From the text: (§1) In A. r. 1215 origin, the same assay method used in Bacillus sp. No. 3 is applied by replacing coenzyme to thio-NADP. In S. r. 301 origin, the reaction solution used for enzyme assay is used by replacing D-chiroinositol for various concentrations of substrates with adding constant concentration of enzyme solution to assay relative activities.

[3] = test system: crude enzyme which catalyses chiroinositol, A. r. 1215 origin; experiment: Substrate specificity (Table 3); type: biochemical, Agrobacterium rhizogenes 1215; conditions: coenzyme replaced by thio-NADP
From the text: as §1

[4] = test system: dehydrogenase which catalyses chiroinositol (Bacillus sp. No. 3 origin); experiment: Initial rate of enzyme reaction with various coenzymes; type: biochemical; conditions: thio-NAD forward reaction, NADH reverse reaction
[5] = test system: crude enzyme which catalyses chiroinositol, S. r. 301 origin; experiment: Relative activities using various coenzymes (Table 2); type: biochemical, Streptomyces roseogriseus 301; conditions: activity using NAD is set as 100%
From the text: (§2) The same as in the enzyme originated from Bacillus sp. No. 3.
(§3) The same as in the enzyme originated from Bacillus sp. No. 3. Relative activities using various coenzymes are shown in Table 2 (activity using NAD is set as 100%).

[6] = test system: crude enzyme which catalyses chiroinositol, A. r. 1215 origin; experiment: as above; type: biochemical, Agrobacterium rhizogenes 1215; conditions: activity using NAD is set as 100%
From the text: as §2, §3

[7] = test system: dehydrogenase which catalyses chiroinositol (Bacillus sp. No. 3 origin); experiment: Initial rate of enzyme reaction with various coenzymes; type: biochemical; conditions: 10 mM D-chiroinositol, 1 mM coenzyme; for Initial rate of enzyme reaction: 37° C., at optimum pH; for Optimum pH for the coenzyme: 100 mM Gly-NaOH buffer
Method: 100 mM Gly-NaOH buffer approx. pH 10 (at optimum pH)
10 mM D-chiroinositol (Wako Pure Chemicals Inc., Japan)
1 mM Coenzyme (NAD(P), thio-NAD(P); Oriental Yeast
Optimum pH are pH 11.0 for NAD, deamino NAD and thio-NAD, pH 10.5 for acetyl NAD, and pH 10.0 for aldehyde NAD and NADP.
The above reaction solution 1 ml in quartz cell is set in spectrophotometer which is controlled at 37° C. After over 5 minutes incubation, enzyme solution 140 U/ml (NAD and deamino NAD; 14 U/ml) 20 μl is added and stirred. Absorption changes per minute in specific wavelength for each reduced coenzyme is measured to obtain initial reaction rate. (For NAD and deamino NAD, measured value is increased number by ten for adjusting the amount of enzyme.)

[8] = test system: dehydrogenase which catalyses chiroinositol (Bacillus sp. No. 3 origin); experiment: Km value; type: biochemical
Method: 100 mM glycine-NaOH buffer (pH 11.0)
1 mM NAD (Oriental Yeast Corp., Japan)
10 mM D-chiroinosiol (Wako Pure Chemicals Inc., Japan)
The above reaction solution 1 ml in quartz cell is set in spectrophotometer which is (controlled at 37° C. After over 5 minutes incubation, aliquot diluted enzyme solution 20 μl is added and stirred. Absorption changes per minute at A340 are measured to obtain initial reaction rate and to calculate relative activity.
Km values are measured at various concentrations using 10 mM
D-chiroinositol and mM NAD.
Km for thio-NAD is measured by replacing NAD to thio-NAD.

[9] = test system: crude enzyme which catalyses chiroinositol, A. r. 1215 origin; experiment: Km value for D-chiroinositol; type: biochemical, Agrobacterium rhizogenes 1215
Method: (§4) Km value for D-chiroinositol is shown. Measurement is performed by changing substrate concentration in the above assay method.

[10] = test system: crude enzyme which catalyses chiroinositol, S. r. 301 origin; experiment: Km value for D-chiroinositol; type: biochemical, Streptomyces roseogriseus 301
Method: as §4

[11] = NAD and deamino NAD values increased by ten for enzyme amount

Row | Molecule | Relative activity [1] [%] | Relative activity, S.r.301 origin [2] [%] | Relative activity, A.r.1215 origin [3] [%] | Relative activity, S.r.301 origin [5] [%] | Relative activity, A.r.1215 origin [6] [%] | Optimum pH for the coenzyme [7] [pH] | also measured
1 | galactose | 0 | – | – | – | – | – | –
2 | O[C@H]1[C@H](O)[C@@H](O)[C@H](O)[C@@H](O)[C@H]1O [myoinositol] | 9 | 0 | 33 | – | – | – | –
3 | NC(=O)C1=CN([C@@H]2O[C@H](COP(=O)(O)OP(=O)(O)OC[C@H]3O[C@@H](n4cnc5c(N)ncnc54)[C@H](O)[C@@H]3O)[C@@H](O)[C@H]2O)C=CC1 [NADH] | – | – | – | – | – | – | Optimum pH of reaction in the cycling reaction [4]: ~10.0 pH
4 | NC(=S)c1ccc[n+]([C@@H]2O[C@H](COP(=O)([O-])OP(=O)(O)OC[C@H]3O[C@@H](n4cnc5c(N)ncnc54)[C@H](OP(=O)(O)O)[C@@H]3O)[C@@H](O)[C@H]2O)c1 [thio-NADP] | – | – | – | 0 | 269 | – | –
5 | NC(=O)c1ccc[n+]([C@@H]2O[C@H](COP(=O)([O-])OP(=O)(O)OC[C@H]3O[C@@H](n4cnc5c(=O)[nH]cnc54)[C@H](O)[C@@H]3O)[C@@H](O)[C@H]2O)c1 [deamino NAD, nicotinamide hypoxanthine dinucleotide] | – | – | – | 110 | 44 | 11.0 | Initial rate of enzyme reaction [7, 11]: 12 Abs/min.
6 | NC(=O)c1ccc[n+]([C@@H]2O[C@H](COP(=O)([O-])OP(=O)(O)OC[C@H]3O[C@@H](n4cnc5c(N)ncnc54)[C@H](OP(=O)(O)O)[C@@H]3O)[C@@H](O)[C@H]2O)c1 [NADP] | – | – | – | 0 | 1855 | 10.0 | Initial rate of enzyme reaction [7]: 80 mAbs/min.
7 | mannose | 0 | 0 | 10 | – | – | – | –
8 | Nc1ncnc2c1ncn2[C@@H]1O[C@H](COP(=O)(O)OP(=O)([O-])OC[C@H]2O[C@@H]([n+]3cccc(C=O)c3)[C@H](O)[C@@H]2O)[C@@H](O)[C@H]1O [aldehyde NAD, pyridine aldehyde adenine dinucleotide] | – | – | – | 20 | 15 | 10.0 | Initial rate of enzyme reaction [7]: 140 mAbs/min.
9 | O[C@H]1[C@H](O)[C@@H](O)[C@H](O)[C@@H](O)[C@@H]1O [scylloinositol] | 0 | 0 | 0 | – | – | – | –
10 | O[C@H]1[C@H](O)[C@H](O)[C@@H](O)[C@H](O)[C@H]1O [D-chiroinositol] | 100 | 100 | 100 | – | – | – | Km ([8]; NAD replaced by thio-NAD): 12.8 ± 0.5 mM; Km ([8]; coenzyme NAD): 5.2 ± 0.5 mM; Km [9]: 30.6 ± 1 mM; Km [10]: 27.6 ± 1 mM
11 | NC(=O)c1ccc[n+]([C@@H]2O[C@H](COP(=O)([O-])OP(=O)(O)OC[C@H]3O[C@@H](n4cnc5c(N)ncnc54)[C@H](O)[C@@H]3O)[C@@H](O)[C@H]2O)c1 [NAD, nicotinamide adenine dinucleotide] | – | – | – | 100 | 190 | 11.0 | Initial rate of enzyme reaction [7, 11]: 13 Abs/min.; Km ([8]; coenzyme NAD): 0.5 ± 0.1 mM
12 | O[C@H]1[C@@H](O)[C@@H](O)[C@@H](O)[C@@H](O)[C@@H]1O [epi-inositol] | 0 | 4 | 0 | – | – | – | –
13 | CC(=O)c1ccc[n+]([C@@H]2O[C@H](COP(=O)([O-])OP(=O)(O)OC[C@H]3O[C@@H](n4cnc5c(N)ncnc54)[C@H](O)[C@@H]3O)[C@@H](O)[C@H]2O)c1 [acetyl NAD, acetylpyridine adenine dinucleotide] | – | – | – | 195 | 26 | 10.5 | Initial rate of enzyme reaction [7]: 260 mAbs/min.
14 | O=C(CO)[C@@H](O)[C@H](O)[C@H](O)CO [fructose] | 0 | 0 | 0 | – | – | – | –
15 | OC[C@@H](O)[C@@H](O)[C@H](O)[C@H](O)CO [mannitol] | 0 | 0 | 0 | – | – | – | –
16 | NC(=S)c1ccc[n+]([C@@H]2O[C@H](COP(=O)([O-])OP(=O)(O)OC[C@H]3O[C@@H](n4cnc5c(N)ncnc54)[C@H](O)[C@@H]3O)[C@@H](O)[C@H]2O)c1 [thio-NAD, thio-nicotinamide adenine dinucleotide] | – | – | – | 6 | 0 | 11.0 | Initial rate of enzyme reaction [7, 11]: 2.5 Abs/min.; Km ([8]; NAD replaced by thio-NAD): 0.9 mM and 0.87 mM; Optimum pH of reaction in the cycling reaction [4]: ~10.5 pH
